According to patent US9682976B2, “Protein kinase C inhibitors and uses thereof” (Rigel Pharmaceuticals, Inc., priority 2012, dated 2017):

System: PKC mediated IL-2 production
Test: IL-2 ELISA, human primary T cell, anti CD3+CD28+
Format: cell-based
Settings: human primary T cells stimulated with αCD3 and αCD28, 24 hours
Protocol: Compounds 1-328 were tested in a whole cell functional assay for PKC mediated IL-2 production as follows. Human primary T cell isolation and culture: Human primary T cells were prepared as follows. Whole blood was obtained from a healthy volunteer, mixed 1:1 with PBS, layered on to Ficoll Hypaque (Amersham Pharmacia Biotech, Piscataway, N.J., Catalog #17-1440-03) in 2:1 blood/PBS:ficoll ratio and centrifuged for 30 minutes at 4° C. at 1750 rpm. The cells at the serum: ficoll interface were recovered and washed twice with 5 volumes of PBS. These freshly isolated human peripheral blood mononuclear cells were cultured in Yssel's medium containing 40 U/ml IL2 in a flask pre-coated with […] αCD3 and 5 μg/ml αCD28 (Anti-Human CD3, BD Pharmingen Catalog #555336, Anti-Human CD28, Beckman Coulter Catalog #IM1376). The cells were stimulated for 3-4 days, then transferred to a fresh flask and maintained in RPMI (RPMI-1640 with L-Glutamine; Mediatech, Inc., Herndon Va., cat. #10-040-CM) with 10% FBS and 40 U/ml IL-2. The primary T-cells were then washed twice with PBS to remove the IL-2.
Primary T cell stimulation and IL2 ELISA: Human primary T cells (100,000 cells per well) were pre-incubated with or without test compound in Yssel's medium for 1 hour at 37° C. Cells were then stimulated by transferring them to round-bottom 96-well plates pre-coated with […] αCD3 and 5 μg/ml αCD28. For counter assay, cells were instead stimulated by adding 8× stock solutions of PMA and ionomycin in Yssels (for final concentrations of 0.5 ng/ml PMA and 0.1 uM ionomycin, both from Calbiochem). Cells were incubated at 37° C. for 24 hours before 100 μL supernatants were harvested for quantification of IL-2 by ELISA using Human IL-2 Duoset ELISA Kit from R and D Systems, Cat. # DY202E.

Row | EC50 | EC50 (Homo sapiens, T-cell, 24 h) | Structure (SMILES)
1 |  | < 100 nM | CC1(C)CC[C@H]2C[C@@H](Nc3nc(Nc4cc(-n5nnnc5C5COC5)c(C5CC5)cc4F)ncc3F)CCN21 [Compound 301, N2-(4-Cyclopropyl-2-fluoro-5-(5-(oxetan-3-yl)-1H-tetrazol-1-yl)phenyl)-N4-((7S,8aS)-3,3-dimethyloctahydroindolizin-7-yl)-5-fluoropyrimidine-2,4-diamine]
2 |  | 100 to 500 nM | COc1ccc(Nc2ncc(F)c(N[C@@H]3C[C@@H]4CCCN4C(C)(C)C3)n2)cc1-n1nnn(CC(C)(C)O)c1=O [Compound 290, 1-(5-(4-((7R,8aS)-octahydro-5,5-dimethylindolizin-7-ylamino)-5-fluoropyrimidin-2-ylamino)-2-methoxyphenyl)-4-(2-hydroxy-2-methylpropyl)-1H-tetrazol-5(4H)-one]
3 |  | < 100 nM | Cc1ccc(Nc2ncc(F)c(N[C@@H]3C[C@@H]4CCCN4C(C)(C)C3)n2)cc1-n1nnn(C)c1=O [Compound 273, 1-(5-(4-((7R,8aS)-octahydro-5,5-dimethylindolizin-7-ylamino)-5-fluoropyrimidin-2-ylamino)-2-methylphenyl)-4-methyl-1H-tetrazol-5(4H)-one]
4 | 100 to 500 nM |  | [2H]C([2H])(O)C([2H])([2H])Oc1ccc(Nc2ncc(F)c(N[C@@H]3C[C@@H]4CCCN4C(C)(C)C3)n2)cc1C#N [Compound 219, 5-((4-(((7R,8aS)-5,5-dimethyloctahydroindolizin-7-yl)amino)-5-fluoropyrimidin-2-yl)amino)-2-(2-hydroxyethoxy-1,1,2,2-d4)benzonitrile]
5 |  | 100 to 500 nM | Cn1nnn(-c2cc(Nc3ncc(F)c(N[C@@H]4C[C@@H]5CCCN5C(C)(C)C4)n3)c(F)cc2OCCNC(=O)OC(C)(C)C)c1=O [Compound 226, tert-butyl (2-(4-((4-(((7R,8aS)-5,5-dimethyloctahydroindolizin-7-yl)amino)-5-fluoropyrimidin-2-yl)amino)-5-fluoro-2-(4-methyl-5-oxo-4,5-dihydro-1H-tetrazol-1-yl)phenoxy)ethyl)carbamate]

The next lines start with the compound.

Row | Structure (SMILES) | EC50 | EC50 (Homo sapiens, T-cell, 24 h)
6 | CC(C)N1CCC(Oc2ccc(Nc3ncc(F)c(N[C@@H]4C[C@H]5CCCN5C(C)(C)C4)n3)cc2OC(F)F)CC1 (single isomer, unassigned) [Compound 8, (R/S, S/R, R/R, S/S)-N^2-(4-(1-isopropylpiperidin-4-yloxy)-3-(difluoromethoxy)phenyl)-5-fluoro-N^4-(octahydro-5,5-dimethylindolizin-7-yl)pyrimidine-2,4-diamine] | 500 to 1000 nM | 
7 | CC1(C)C[C@H](Nc2nc(Nc3ccc(OCC4COC4)c(C#N)c3)ncc2F)C[C@@H]2CCCN21 [Compound 175, 5-(4-((7R,8aS)-5,5-dimethyloctahydroindolizin-7-ylamino)-5-fluoropyrimidin-2-ylamino)-2-(oxetan-3-ylmethoxy)benzonitrile] |  | 500 to 1000 nM
8 | CC1(C)CC(Nc2nc(Nc3ccc(O[C@H]4CCOC4)c(C#N)c3)ncc2F)CC2CCCN21 (single isomer, unassigned) [Compound 62] | 100 to 500 nM | 
9 | COc1cc(Nc2ncc(F)c(N[C@@H]3C[C@H]4CCCN4C(C)(C)C3)n2)cc(-n2nnnc2C)c1 (single isomer, unassigned) [Compound 12, (R/S, S/R, R/R, S/S)-5-fluoro-N4-(octahydro-5,5-dimethylindolizin-7-yl)N2-(3-methoxy-5-(5-methyl-1H-tetrazol-1-yl)phenyl)pyrimidine-2,4-diamine] | 500 to 1000 nM | 
10 | Cn1nnn(-c2cc(Nc3ncc(C#N)c(N[C@@H]4C[C@@H]5CCCN5C(C)(C)C4)n3)c(F)cc2OC2CCOC2)c1=O (some centres unmarked) [Compound 111] |  | 100 to 500 nM
11 | CC1(C)C[C@H](Nc2nc(Nc3ccc(OCCO)c(C(F)(F)F)c3)ncc2F)C[C@@H]2CCCN21 [Compound 131, 2-(4-((4-(((7R,8aS)-5,5-dimethyloctahydroindolizin-7-yl)amino)-5-fluoropyrimidin-2-yl)amino)-2-(trifluoromethyl)phenoxy)ethan-1-ol] |  | < 100 nM
